From patent publication US10793625B2, “Compositions and methods for treating or preventing osteoarthritis” (THE JOHNS HOPKINS UNIVERSITY, priority 2012, dated 2020)
Like-named read-outs stand apart in the source and are kept apart here.

What was measured:
MSCs = test: Western blot of Smad phosphorylation in cultured MSCs treated with recombinant hTGF-β1; assay type: cell-based, mouse
Description: Cell Culture. We obtained green fluorescent protein (GFP)-labeled mouse adult MSCs from the Texas A&M Health Science Center College of Medicine Institute (College Station). We maintained cells (Passage 3-5) Iscove's modified Dulbecco's medium (Invitrogen) supplemented with 10% fetal calf serum (Atlanta Biologicals), 10% horse serum (Thermo Scientific), and (% penicillin-streptomycin (Mediatech). We cultured MSCs in 6-well plates at a density of 1.8×10^5 cells per well, then starved them for 6 h followed by TGF-β1 (R&D Systems) and TβRI inhibitor (SB-505124) (Sigma-Aldrich) treatment as indicated.
ELISA and Western Blot, We determined the concentration of active TGF-β1 in the conditioned media by the ELISA Development kit (R&D Systems) according to the manufacturer's instructions. Western blot analyses were conducted on the protein of lysates from in vitro cultured MSCs. The cell lysates were centrifuged and the supernatants were separated by SDS-PAGE and blotted on polyvinylidene fluoride membrane (Bio-Rad Laboratories). Following incubation in specific antibodies, we detected proteins using an enhanced chemiluminescence kit (Amersham Biosciences). […]

active TGF-β1 = conditions: injection; cited from earlier work
9-month-old ACLT mice = test: ACLT or sham surgery in 9 month old mice treated with TβRI inhibitor; assay type: in vivo, mouse; conditions: for articular cartilage degeneration / subchondral bone structure / architecture: 1 mg/kg daily for 1 month
Description: (FIG. 12A) Safranin O staining of tibia articular cartilage and subchondral bone of mice sacrificed at 0, 14, 30, and 60 days post sham or ACLT surgery and treated with either vehicle or TβRI inhibitor (SB505124-1 mg/kg) daily beginning 3 days post-surgery for 1 month. For those mice analyzed at earlier time points, the mice were treated until sacrificed. (FIG. 12B) 3D μCT images of subchondral bone of knee joints. The sham operated mice maintained articular cartilage and subchondral bone structure throughout the duration of the experiment. […] (FIG. 12C) OARSI score based on the histology analysis. Quantitative analysis of structural parameters by μCT analysis: (FIG. 12D) thickness of subchondral bone plate (SBP) and (FIG. 12E) trabecular pattern factor (Tb. Pf). […] Ve-Sham: vehicle treated in sham operated; In-Sham: TβRI inhibitor treat in sham operated; Ve-ACLT: vehicle treated in ACLT operated; In-ACLT: TβRI inhibitor treated in ACLT operated mice.
Histochemistry, Immunohistochemistry and Histomorphometry. […] Immunostaining was performed using standard protocol. […] We calculated OARSI scores as previously described.
Micro-Computed Tomography (μCT). […] Th: trabecular thickness, Tb. Sp: trabecular separation, SMI, Conn. Dn: connectivity density, and Tb.Pf: trabecular pattern factor.

[1] = system: Nestin-Cre™ER::Rosa26-LacZ^fl/fl mice; test: β-gal and osteocalcin co-staining in subchondral bone of Nestin-CreER::Rosa26-LacZfl/fl ACLT mice; assay type: in vivo, mouse
Text: We purchased Nestin-Cre™ER and (ROSA)26Sortm1Sor/J mice from the Jackson Laboratory. Floxed type II TGF-β receptor (TβRII^fl/fl) mice were obtained from Dr. Moses' lab. Nestin-Cre™ER mice were crossed with TβRII^fl/fl mice. The offspring were intercrossed to generate the following offspring: nestin-Cre™ER::TβRII^fl/fl, in which Cre was fused with a mutated estrogen receptor that could be activated by Tamoxifen. We determined the genotype of transgenic mice by PCR analyses of genomic DNA isolated from mouse tails. Genotyping for the Cre transgene was performed by PCR with the primers Cre 5′ (5′-CAAATAGCCCTGGCAGAT-3′) and Cre 3′ (5′-[…]-3′). The loxP TβRII allele was identified with the primerslox1F (5′-[…]-3′) and lox1R (5′-[…]-3′). We generated Nestin-Cre™ER::Rosa26-LacZ^fl/fl mice by crossing nestin-Cre™ER mice with mice homozygous with a loxP-flanked DNA STOP sequence preventing expression of the downstream lacZ gene. The offspring were then intercrossed to generate the following genotype: Nestin-Cre™ER::Rosa26-LacZ^fl/fl. We performed sham or ACLT operations on two month-old, male WT, Nestin-Cre™ER::TβRII^fl/fl and Nestin-Cre™ER::Rosa26-lacZ^fl/fl male mice. […]
Histochemistry, Immunohistochemistry and Histomorphometry. […] We calculated OARSI scores as previously described.

[2] = system: Dunkin Hartley guinea pig spontaneous osteoarthritis; test: Dunkin Hartley guinea pig spontaneous osteoarthritis, MRI of knee joints; assay type: in vivo; conditions: injected for 3 months
Text: (FIG. 16A) MRI scanning of knee joints of the guinea pig with different dose of TβRI inhibitor or vehicle treatment for 3 months. Red arrows pointing the bone marrow lesions in the subchondral bone of distal femur (upper row) or tibiae plateau (lower row). (FIG. 16B) Quantitative analysis of the bone marrow lesion intensity.

[3] = 9 month old ACLT mice, listed as WI inhibitor, 1 mg/kg

## TGF-β1: recombinant hTGF-β1 (R&D Systems) used to treat cultured MSCs
MSCs
  dose giving maximal increase of phosphorylated Smad1/5/8: 5 ng/mL
MSCs; low concentrations
  phosphorylation of Smad2/3 and Smad1/5/8: stimulated phosphorylation

## Cc1cccc(-c2[nH]c(C(C)(C)C)nc2-c2ccc3c(c2)OCO3)n1 [TβRI inhibitor]
Active TGF-β1
  uncoupled bone formation induced by high concentrations of active TGF-β1: rescue uncoupled bone formation
ACLT mice; 1 mg kg^−1
  subchondral bone tissue volume (TV), μCT: normalization of subchondral bone TV
  thickness of subchondral bone plate (SBP), μCT: maintenance of the thickness of SBP
  trabecular pattern factor (Tb. Pf), μCT: decrease in Tb. Pf
ACLT mice; 0.1 and 0.5 mg/kg, 2 months after ACLT
  degeneration of articular cartilage: nor prevent the degeneration of articular cartilage
ACLT mice; 1 month post ACLT
  contrast signal in MRI perfusion analysis: the increase was prevented
ACLT mice; 2 weeks post-surgery
  expression of ALK5 in subchondral bone: the increase was inhibited
  pSmad2/3+ cells in subchondral bone: the increase was prevented
ACLT mice; 2 weeks post-surgery, relative to sham
  expression level of ALK1 in subchondral bone: remained unchanged
ACLT mice; 2 weeks post-surgery, relative to sham controls
  number of pSmad1+ cells in subchondral bone: remained relatively stable
ACLT mice; 2.5 and 5 mg/kg daily i.p. for 30 days, ACLT mice
  subchondral bone structure: could rescue the bone structure
ACLT mice; 14 and 30 days, immunostaining
  co-localization of osterix+ osteoprogenitors and TRAP+ osteoclasts: co-localization of osterix and TRAP was seen
ACLT mice; 30 days post-surgery, immunostaining
  increase of nestin+ MSCs in subchondral bone marrow: prevented
ACLT mice; ACLT mice
  CD31+ endothelial progenitors in subchondral bone: reduced
ACLT mice; all doses, 30 and 60 days post ACLT
  bone volume/tissue volume (BV/TV), μCT: did not change BV/TV
ACLT mice; high doses 1, 2.5 and 5 mg/kg
  subchondral bone tissue volume (TV), μCT: inhibited the increase in TV
  trabecular pattern factor (Tb. Pf), μCT: decreased Tb. Pf
ACLT mice; higher concentrations, beginning at 1 mg kg^−1
  subchondral bone structure: improved subchondral bone structure
ACLT mice; micro-MRI, vs ACLT-vehicle treated mice
  bone marrow lesion in tibial subchondral bone: obviously smaller in size
ACLT mice; one month post ACLT, vs vehicle
  increased number of osterix+ osteoprogenitor clusters in bone marrow: attenuated
ACLT mice; two months post-surgery, Catwalk system
  gait analysis: disparity of maximum contact time (Maxcontactat %) of the two hind limbs: rescued
ACLT mice; vs vehicle treated ACLT mice
  OARSI score of articular cartilage: protective effect
9-month-old ACLT mice; 9 month old ACLT mice, 1 mg/kg
  articular cartilage degeneration: attenuated the articular cartilage degeneration
  subchondral bone structure / architecture: improved subchondral bone architecture
9-month-old ACLT mice; [3]
  articular cartilage degeneration: attenuated
  subchondral bone structure / architecture: improved
9-month-old ACLT mice; 9 month old ACLT mice, 1 and 2 months post ACLT, relative to ACLT-Vehicle
  trabecular pattern factor (Tb. Pf), μCT: decreased the trabecular pattern factor
9-month-old ACLT mice; 9 month old ACLT mice, 1 month post-surgery, compared to sham-operated controls
  thickness of subchondral bone plate (SBP), μCT: remained normal
9-month-old ACLT mice; sham-operated 9 month old mice, 1 mg/kg
  effect on articular cartilage: did not have significant effect on articular cartilage
[1]
  distribution of β-gal+ MSC lineage cells in subchondral bone: primarily distributed on bone surface
[2]
  subchondral bone marrow lesions in knee joints: significantly reduced
